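In this assay, cells in 96-well plates receive the compound at five concentrations for 48 hours. Endpoints are linearly interpolated between the surrounding concentrations. TGI marks complete inhibition of growth.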 Where a SMILES comes first, the peptide text is derived from it. [ ]: non-standard residue; d: D form. The star is where a group is joined. NMeF = CN[CH](Cc1ccccc1)C(=O)O; NMeV = CN[CH](C(=O)O)C(C)C; Boc = CC(C)(C)OC(=O)*; OBn = c1ccc(CO*)cc1
What was measured:
Assay in all cases: DTP human tumour cell line panel, 48 h
HCT-15 colon = system: HCT-15 colon
SK-OV-3 ovarian = system: SK-OV-3 ovarian
SF-539 CNS = system: SF-539 CNS
CCRF-CEM leukemia = system: CCRF-CEM leukemia
SN12C renal = system: SN12C renal
UO-31 renal = system: UO-31 renal
K-562 leukemia = system: K-562 leukemia
HS 578T breast = system: HS 578T breast
NCI-H522 lung = system: NCI-H522 lung
RXF 393 renal = system: RXF 393 renal
HCC-2998 colon = system: HCC-2998 colon
HOP-62 NSCLC = system: HOP-62 NSCLC

Compound	TGI (HCT-15 colon) [µM]	TGI (SK-OV-3 ovarian) [µM]	TGI (SF-539 CNS) [µM]	TGI (CCRF-CEM leukemia) [µM]	TGI (SN12C renal) [µM]	TGI (UO-31 renal) [µM]	TGI (K-562 leukemia) [µM]	TGI (HS 578T breast) [µM]	TGI (NCI-H522 lung) [µM]	TGI (RXF 393 renal) [µM]	TGI (HCC-2998 colon) [µM]	TGI (HOP-62 NSCLC) [µM]
CC(NC(=O)C(C)C(=O)NCc1ccc(C(F)(F)F)cc1)C(N)=O (configuration not stated)	> 100	> 100	> 100	> 100	> 100	> 100	> 100	> 100	> 100	> 100		
O=C(Nc1ccc2ccccc2c1)Nn1cnnc1	> 100	> 100	> 100	> 100		> 100	> 100	> 100	> 100		> 100	> 100
O=c1[nH]c(=O)n(C2CC(O)C(CO)O2)cc1NN=NCc1ccccc1 (configuration not stated)	> 100	> 100		> 100	> 100	> 100	> 100	> 100	> 100	> 100		> 100
O=C(/C=C/c1cccs1)c1ccsc1	40.5	> 100		45.5	52.6	32.4	89.8				34.9	> 100
O=C1c2ccccc2C2(c3ccc(Cl)cc3)NCc3ccccc3CN12 (configuration not stated)	60.7	80.9	29.8	86.2	> 100	78.1	> 100	56.7		29.6	45.6	30.5
CC(=O)OCC1OC(OCC2OC(N3C(=S)N[C@H]([C@@H](O)[C@H](O)[C@H](O)CO)[C@H]3O)C(OC(C)=O)C(OC(C)=O)C2OC(C)=O)C(OC(C)=O)C(OC(C)=O)C1OC(C)=O (some centres not stated)	> 100	> 100	> 100		> 100	> 100	> 100		> 100	> 100	> 100	> 100
COc1ccc(N2CCN(c3ccc4c(c3)NCC(=O)N4)CC2)cc1	> 100	> 100	54.1	> 100	> 100	70.4	> 100	67.1	30.8		> 100	> 100
Brc1cccc(C2(CCCC3(c4cccc(Br)n4)OCCO3)OCCO2)n1	> 100	> 100	> 100		> 100	> 100	> 100		> 100	> 100	> 100	> 100
CCOC(OCC)C(CCc1ccccc1)c1c(N)nc(N)[nH]c1=O (configuration not stated)	> 100	90.7	> 100	> 100	> 100	> 100	84.7	> 100		> 100	> 100	> 100
CC(=O)NC1C(OCc2ccccc2)OC(CO)C(O)C1OCC(=O)NC(C)C(=O)NC(CCC(=O)NCCCCCC(=O)Nc1ccc2c(c1)CN1C(=O)c3ccccc3C1=N2)C(N)=O (configuration not stated)	> 100	> 100	> 100	> 100	> 100	> 100	> 100	> 100		> 100	> 100	> 100
Cc1nnc(N)nc1/C=C\c1cccs1	29.6	> 100		70.8		40.9	59.7	> 100	17.6	40.8	30.9	38.5
CC(C)C(NC(=O)OC(C)(C)C)C(=O)N(C)C(Cc1ccccc1)C(=O)N(C)C(C(=O)N(C)C(C(=O)OCc1ccccc1)C(C)C)C(C)C (configuration not stated) (Boc-V[NMeF][NMeV][NMeV]-OBn; configuration not given here)	> 100		> 100	> 100	> 100	> 100	> 100		> 100		> 100	> 100
Cc1ccnc(NC(=S)Nc2ccccc2Cl)c1	> 100	> 100	> 100	> 100	> 100	> 100	> 100	> 100	> 100	> 100		> 100
O=c1c2cc(-c3ccccc3)cnc2sn1-c1ccc([N+](=O)[O-])cc1	> 100	> 100	> 100	> 100	> 100	> 100	> 100		75.4	82.1	> 100	81.7
ClCc1c(-c2ccccc2)nn(-c2ccccc2)c1CCl	27		33.1		42.3	45			0.416	28.3	26.8	
c1ccc([C@H]2CN3CCSC3=N2)cc1	> 100	> 100	> 100	> 100	> 100	> 100	> 100		> 100	> 100	> 100	> 100
C=C(C)CC1=C(C(=S)NCCO[Si](C)(C)C(C)(C)C)C(OCC)(OCC)C1=O	47.5	41.4	37.8	> 100	42.2	35.9		> 100	29	31.5		34.3
COC(=O)C1(NC(=O)C(N)CC(=O)O)C(C)C1C (configuration not stated)	> 100	> 100	> 100	> 100	> 100	> 100	> 100	> 100	> 100	> 100		> 100
Sc1nnc(-c2ccccc2Nc2ccccc2-c2nnc(S)n2-c2ccccc2)n1-c1ccccc1	> 100		> 100	> 100	72.9	> 100	> 100		81.8	> 100	> 100	> 100
CCN(CC)C(=O)c1c(N2CCOCC2)cc(N(CC)CC)oc1=O	> 100	> 100	> 100	> 100	> 100	> 100	> 100		> 100	> 100	> 100	> 100
NCCCCNCCCN	> 100	> 100	> 100			> 100	> 100		> 100	> 100	> 100	> 100
